{"source": "ChEMBL document CHEMBL4622963", "about": "“Optimization of Nicotinamides as Potent and Selective IRAK4 Inhibitors with Efficacy in a Murine Model of Psoriasis” (ACS Med Chem Lett, 2020)", "key": {"[1]": {"molecular_target": "T1, Interleukin-1 receptor-associated kinase 4 (Homo sapiens, UniProt Q9NWZ3)", "T1 sequence (Q9NWZ3 whole entry)": "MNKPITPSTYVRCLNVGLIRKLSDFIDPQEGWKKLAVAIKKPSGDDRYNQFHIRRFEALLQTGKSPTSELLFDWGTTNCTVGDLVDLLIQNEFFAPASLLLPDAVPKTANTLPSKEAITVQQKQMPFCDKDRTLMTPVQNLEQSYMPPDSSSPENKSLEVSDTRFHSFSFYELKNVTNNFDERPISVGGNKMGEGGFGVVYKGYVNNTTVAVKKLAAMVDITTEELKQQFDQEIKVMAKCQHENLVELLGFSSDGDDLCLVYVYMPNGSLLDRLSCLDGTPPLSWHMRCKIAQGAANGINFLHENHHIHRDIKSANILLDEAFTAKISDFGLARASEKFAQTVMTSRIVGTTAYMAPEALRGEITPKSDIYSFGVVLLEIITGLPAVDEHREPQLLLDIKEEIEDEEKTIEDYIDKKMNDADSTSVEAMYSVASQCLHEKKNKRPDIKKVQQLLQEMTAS", "assay": "Inhibition of IRAK4 in human PBMC assessed as inhibition of LTA-induced IL-6 production preincubated for 30 mins followed by LTA-stimulation and measured after 5 hrs by ELISA", "type": "cell-based"}, "[2]": {"molecular_target": "T2, Mast/stem cell growth factor receptor Kit (Homo sapiens, UniProt P10721)", "T2 sequence (P10721 whole entry)": "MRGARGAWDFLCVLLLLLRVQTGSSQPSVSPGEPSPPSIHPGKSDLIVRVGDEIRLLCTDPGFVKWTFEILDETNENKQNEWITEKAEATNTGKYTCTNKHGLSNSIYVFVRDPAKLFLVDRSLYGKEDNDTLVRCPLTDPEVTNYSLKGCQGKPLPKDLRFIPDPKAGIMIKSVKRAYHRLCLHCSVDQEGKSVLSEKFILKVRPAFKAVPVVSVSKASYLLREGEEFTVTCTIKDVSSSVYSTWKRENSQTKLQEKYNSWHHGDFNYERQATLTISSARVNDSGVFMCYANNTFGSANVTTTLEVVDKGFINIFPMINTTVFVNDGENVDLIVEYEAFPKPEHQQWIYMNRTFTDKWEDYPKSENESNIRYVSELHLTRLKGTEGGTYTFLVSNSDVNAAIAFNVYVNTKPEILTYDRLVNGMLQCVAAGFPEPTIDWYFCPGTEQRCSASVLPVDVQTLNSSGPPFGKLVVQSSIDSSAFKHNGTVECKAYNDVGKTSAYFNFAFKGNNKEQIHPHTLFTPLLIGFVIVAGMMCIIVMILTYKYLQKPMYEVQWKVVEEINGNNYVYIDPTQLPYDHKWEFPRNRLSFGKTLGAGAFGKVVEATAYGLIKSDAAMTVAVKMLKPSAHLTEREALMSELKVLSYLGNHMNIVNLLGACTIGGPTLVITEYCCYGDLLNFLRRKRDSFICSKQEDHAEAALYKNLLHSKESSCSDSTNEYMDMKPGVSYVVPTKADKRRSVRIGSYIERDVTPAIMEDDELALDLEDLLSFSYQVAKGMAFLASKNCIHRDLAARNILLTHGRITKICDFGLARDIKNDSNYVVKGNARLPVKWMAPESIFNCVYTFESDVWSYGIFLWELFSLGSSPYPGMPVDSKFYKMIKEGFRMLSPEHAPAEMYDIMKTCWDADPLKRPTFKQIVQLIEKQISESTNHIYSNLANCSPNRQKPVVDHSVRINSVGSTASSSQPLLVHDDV", "assay": "Inhibition of cKit (unknown origin) by functional based assay"}, "[3]": {"molecular_target": "T1, Interleukin-1 receptor-associated kinase 4", "assay": "Inhibition of IRAK4 (unknown origin) using FL-IPTSPITTTYFFFKKK peptide and ATP as substrate incubated for 60 mins by fluorescence based caliper assay"}, "[4]": {"molecular_target": "Mast/stem cell growth factor receptor Kit (Homo sapiens, UniProt P10721, V559D/T670I)", "sequence (P10721 26-976 V559D/T670I limits assumed)": "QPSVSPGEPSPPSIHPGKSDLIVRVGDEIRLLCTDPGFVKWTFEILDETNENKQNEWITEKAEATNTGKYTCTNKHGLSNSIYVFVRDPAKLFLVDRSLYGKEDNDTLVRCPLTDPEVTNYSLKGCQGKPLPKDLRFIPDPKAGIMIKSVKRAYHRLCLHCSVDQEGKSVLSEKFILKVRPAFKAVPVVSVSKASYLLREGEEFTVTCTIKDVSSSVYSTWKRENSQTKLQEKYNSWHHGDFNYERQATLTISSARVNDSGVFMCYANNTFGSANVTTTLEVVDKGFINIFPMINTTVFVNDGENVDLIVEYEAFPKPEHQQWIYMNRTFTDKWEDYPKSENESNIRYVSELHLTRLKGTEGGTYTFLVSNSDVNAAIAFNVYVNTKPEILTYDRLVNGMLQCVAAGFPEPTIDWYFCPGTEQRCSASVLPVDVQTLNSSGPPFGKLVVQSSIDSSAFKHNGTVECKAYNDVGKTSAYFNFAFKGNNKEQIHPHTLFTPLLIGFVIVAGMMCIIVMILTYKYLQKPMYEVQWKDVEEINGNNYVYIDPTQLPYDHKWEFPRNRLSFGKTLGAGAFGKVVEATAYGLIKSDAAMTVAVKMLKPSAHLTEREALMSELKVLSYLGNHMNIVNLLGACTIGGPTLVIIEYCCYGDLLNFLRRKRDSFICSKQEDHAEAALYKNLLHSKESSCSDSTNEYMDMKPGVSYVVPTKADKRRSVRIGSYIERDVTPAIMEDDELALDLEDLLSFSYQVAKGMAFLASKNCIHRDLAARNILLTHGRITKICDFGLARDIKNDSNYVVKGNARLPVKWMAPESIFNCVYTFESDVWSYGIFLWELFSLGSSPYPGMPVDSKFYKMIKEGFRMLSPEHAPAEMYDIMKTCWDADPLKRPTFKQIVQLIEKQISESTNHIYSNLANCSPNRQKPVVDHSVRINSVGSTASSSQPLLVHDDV", "assay": "Inhibition of recombinant human partial length cKit Val559Asp/Thr670Ile double mutant expressed in bacterial expression system"}, "[5]": {"molecular_target": "T3, Mitogen-activated protein kinase kinase kinase 7 (Homo sapiens, UniProt O43318)", "T3 sequence (O43318 whole entry)": "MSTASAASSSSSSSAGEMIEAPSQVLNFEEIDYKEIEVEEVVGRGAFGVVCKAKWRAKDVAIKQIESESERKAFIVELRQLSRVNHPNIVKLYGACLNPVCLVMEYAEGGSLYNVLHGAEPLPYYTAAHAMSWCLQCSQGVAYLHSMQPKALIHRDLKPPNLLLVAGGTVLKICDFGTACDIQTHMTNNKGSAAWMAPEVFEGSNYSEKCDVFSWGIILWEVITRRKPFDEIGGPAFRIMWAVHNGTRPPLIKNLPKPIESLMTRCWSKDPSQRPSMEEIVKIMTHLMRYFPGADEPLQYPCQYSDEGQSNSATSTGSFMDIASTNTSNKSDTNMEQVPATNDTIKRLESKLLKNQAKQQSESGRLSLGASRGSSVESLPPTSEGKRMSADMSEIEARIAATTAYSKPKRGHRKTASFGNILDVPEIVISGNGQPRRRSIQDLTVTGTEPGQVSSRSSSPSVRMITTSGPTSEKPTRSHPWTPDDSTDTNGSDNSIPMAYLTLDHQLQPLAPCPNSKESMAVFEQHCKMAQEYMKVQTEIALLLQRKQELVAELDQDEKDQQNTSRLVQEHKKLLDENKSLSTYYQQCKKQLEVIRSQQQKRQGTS", "assay": "Inhibition of human wild type partial length TAK1 (1 to 303 residues) expressed in mammalian expression system"}, "[6]": {"assay": "Stability in mouse liver microsomes assessed as parent compound remaining measured after 10 mins", "type": "ADME, Microsome", "details": "read-out: Stability; call rule not given here"}, "[7]": {"molecular_target": "T2, Mast/stem cell growth factor receptor Kit", "assay": "Inhibition of recombinant N-terminal GST-tagged human cKit (544 to end residues) expressed in baculovirus infected Sf21 cells"}, "[8]": {"species": "Homo sapiens", "assay": "Selectivity index, ratio of IC50 for recombinant N-terminal GST-tagged human cKit (544 to end residues) expressed in baculovirus infected Sf21 cells to IC50 for IRAK4 (unknown origin)"}, "[9]": {"assay": "Half life in mouse at 2 mg/kg, iv administered as infusion or 2 mg/kg, po via gavage measured up to 24 hrs by LC-MS analysis", "type": "ADME, organism-based", "details": "in vivo"}, "[10]": {"assay": "Permeability across apical to basolateral side in human Caco2 cells", "details": "Caco-2"}, "[11]": {"molecular_target": "T1, Interleukin-1 receptor-associated kinase 4", "assay": "Inhibition of IRAK4 in human whole blood assessed as inhibition of LTA-induced IL-6 production preincubated for 30 mins followed by LTA-stimulation and measured after 5 hrs by ELISA", "type": "tissue-based"}, "[12]": {"assay": "Clearance in mouse at 2 mg/kg, iv administered as infusion or 2 mg/kg, po via gavage measured up to 24 hrs by LC-MS analysis", "type": "ADME, organism-based", "details": "in vivo"}, "[13]": {"assay": "AUC in mouse at 2 mg/kg, po via gavage measured up to 24 hrs by LC-MS analysis", "type": "ADME, organism-based", "design": "time < 24 hr, dose 2 mg/kg, route oral", "details": "in vivo"}, "[14]": {"assay": "Stability in human liver microsomes assessed as parent compound remaining", "type": "ADME, Microsome"}, "[15]": {"assay": "Volume of distribution at steady state in mouse at 2 mg/kg, iv administered as infusion or 2 mg/kg, po via gavage measured up to 24 hrs by LC-MS analysis", "type": "ADME, organism-based", "details": "in vivo, read-out: Vdss"}, "[16]": {"assay": "Oral bioavailability in mouse at 2 mg/kg administered via gavage measured up to 24 hrs by LC-MS analysis", "type": "ADME, organism-based", "details": "in vivo"}, "[17]": {"molecular_target": "TRAF2 and NCK-interacting protein kinase (Homo sapiens, UniProt Q9UKE5)", "sequence (Q9UKE5 whole entry, the tested form may be a part)": "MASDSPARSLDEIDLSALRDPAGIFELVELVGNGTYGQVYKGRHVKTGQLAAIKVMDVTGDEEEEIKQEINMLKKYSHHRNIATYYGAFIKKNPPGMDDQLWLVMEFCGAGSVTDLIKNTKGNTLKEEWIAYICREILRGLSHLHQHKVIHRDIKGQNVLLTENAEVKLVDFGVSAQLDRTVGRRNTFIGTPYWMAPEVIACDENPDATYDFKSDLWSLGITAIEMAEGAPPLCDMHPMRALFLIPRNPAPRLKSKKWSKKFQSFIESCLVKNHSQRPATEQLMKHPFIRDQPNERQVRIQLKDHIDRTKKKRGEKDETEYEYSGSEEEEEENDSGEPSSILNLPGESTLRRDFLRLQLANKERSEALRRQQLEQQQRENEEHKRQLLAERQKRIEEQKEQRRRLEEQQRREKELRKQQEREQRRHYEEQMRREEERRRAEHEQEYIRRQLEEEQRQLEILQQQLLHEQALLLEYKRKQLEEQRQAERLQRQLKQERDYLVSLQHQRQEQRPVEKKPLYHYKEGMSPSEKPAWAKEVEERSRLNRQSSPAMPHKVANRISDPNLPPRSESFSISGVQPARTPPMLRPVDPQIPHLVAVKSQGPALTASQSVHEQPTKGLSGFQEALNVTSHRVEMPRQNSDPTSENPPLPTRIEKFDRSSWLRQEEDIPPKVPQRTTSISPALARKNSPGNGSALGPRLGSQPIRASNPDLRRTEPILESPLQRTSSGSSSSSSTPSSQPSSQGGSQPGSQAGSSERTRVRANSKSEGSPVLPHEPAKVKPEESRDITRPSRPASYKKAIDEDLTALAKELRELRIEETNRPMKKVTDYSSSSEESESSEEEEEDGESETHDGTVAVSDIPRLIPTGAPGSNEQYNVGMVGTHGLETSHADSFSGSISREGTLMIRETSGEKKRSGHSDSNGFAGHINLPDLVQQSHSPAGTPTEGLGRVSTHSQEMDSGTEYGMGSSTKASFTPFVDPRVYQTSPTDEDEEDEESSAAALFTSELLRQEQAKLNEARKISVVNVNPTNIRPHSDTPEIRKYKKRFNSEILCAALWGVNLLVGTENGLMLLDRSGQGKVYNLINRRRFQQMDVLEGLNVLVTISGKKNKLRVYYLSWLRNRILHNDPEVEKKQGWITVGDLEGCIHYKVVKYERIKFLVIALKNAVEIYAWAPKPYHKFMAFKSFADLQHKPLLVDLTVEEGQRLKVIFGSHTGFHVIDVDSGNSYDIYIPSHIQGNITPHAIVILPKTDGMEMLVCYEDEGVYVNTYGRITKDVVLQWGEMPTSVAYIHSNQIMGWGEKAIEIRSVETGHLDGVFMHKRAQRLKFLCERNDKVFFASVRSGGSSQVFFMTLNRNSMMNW", "assay": "Inhibition of human wild type partial length TNIK (D4-K311 residues) expressed in bacterial expression system"}, "[18]": {"species": "Homo sapiens", "assay": "Selectivity index, ratio of IC50 for N-terminal His6-tagged human full length recombinant LCK expressed in baculovirus infected Sf21 cells to IC50 for IRAK4 (unknown origin)"}, "[19]": {"molecular_target": "Mast/stem cell growth factor receptor Kit (Homo sapiens, UniProt P10721, V559D)", "sequence (P10721 26-976 V559D limits assumed)": "as the sequence (P10721 26-976 V559D/T670I limits assumed) above, with I645T counted along it", "assay": "Inhibition of recombinant human partial length cKit Val559Asp mutant expressed in bacterial expression system"}, "[20]": {"assay": "AUC in mouse at 2 mg/kg, iv administered as infusion measured up to 24 hrs by LC-MS analysis", "type": "ADME, organism-based", "design": "time < 24 hr, dose 2 mg/kg, route intravenous", "details": "in vivo"}}, "data": [{"smiles": "CC(C)Nc1cc(Nc2ccn3nccc3n2)ncc1C(=O)NC[C@@H](F)C(C)(C)O", "values": [{"measurement": "IC50", "setting": "[1]", "value": 100, "unit": "nM"}, {"measurement": "IC50", "setting": "[2]", "value": 170, "unit": "nM"}, {"measurement": "IC50", "setting": "[3]", "value": 3.2, "unit": "nM"}, {"measurement": "inhibition (INH)", "setting": "[4]", "value": "Not Active"}, {"measurement": "IC50", "setting": "[5]", "value": 190, "unit": "nM"}, {"measurement": "remaining at 10 min", "setting": "[6]", "value": 89, "unit": "%"}, {"measurement": "IC50", "setting": "[7]", "value": 24, "unit": "nM"}, {"measurement": "Ratio IC50", "setting": "[8]", "value": 8}, {"measurement": "half-life", "setting": "[9]", "value": 2, "unit": "h"}, {"measurement": "Papp A→B", "setting": "[10]", "value": 6.9, "unit": "×10⁻⁶ cm/s"}, {"measurement": "IC50", "setting": "[11]", "value": 340, "unit": "nM"}, {"measurement": "clearance", "setting": "[12]", "value": 33, "unit": "mL/min/kg"}, {"measurement": "AUC at 24 h", "setting": "[13]", "value": 0.9, "unit": "µM·h"}, {"measurement": "Stability", "setting": "[14]", "value": 100, "unit": "%"}, {"measurement": "Vd", "setting": "[15]", "value": 3, "unit": "L/kg"}, {"measurement": "bioavailability", "setting": "[16]", "value": 36, "unit": "%"}, {"measurement": "IC50", "setting": "[17]", "value": 8, "unit": "nM"}, {"measurement": "Ratio IC50", "setting": "[18]", "value": 130}, {"measurement": "inhibition (INH)", "setting": "[19]", "value": "Active"}, {"measurement": "AUC at 24 h", "setting": "[20]", "value": 2.4, "unit": "µM·h"}]}]}
